Measurements published in patent US11535594B2, “Microbiocidal picolinamide derivatives” (Syngenta Participations AG, priority 2017, dated 2022).

Tests used:
[1] = test system: Puccinia Recondite f. Sp. Tritici; experiment: Puccinia recondita f. sp. tritici / wheat / leaf disc preventative (brown rust); type: in vivo; conditions: foliar, wheat leaf segments cv. Kanzler, inoculated 1 day after application, assessed 7-9 days after application, compared to untreated, read-out: disease control
Procedure: Puccinia Recondite f. Sp. Tritici/Wheat/Leaf Disc Preventative (Brown Rust) Wheat leaf segments cv. Kanzler are placed on agar in multiwell plates (24-well format) and sprayed with the formulated test compound diluted in water. The leaf disks are inoculated with a spore suspension of the fungus 1 day after application. The inoculated leaf segments are incubated at 19° C. and 75% rh under a light regime of 12 h light/12 h darkness in a climate cabinet and the activity of a compound is assessed as percent disease control compared to untreated when an appropriate level of disease damage appears in untreated check leaf segments (7-9 days after application).

[2] = test system: Phaeosphaeria nodorum (Septoria nodorum); experiment: Phaeosphaeria nodorum (Septoria nodorum) / wheat / leaf disc preventative (glume blotch); type: in vivo; conditions: Parastagonospora nodorum, foliar, 120 h, wheat leaf segments cv. Kanzler, inoculated 2 days after application, assessed 5-7 days after application, compared to untreated, read-out: disease control
Procedure: Phaeosphaeria nodorum (Septoria nodorum)/Wheat/Leaf Disc Preventative (Glume Blotch) Wheat leaf segments cv. Kanzler are placed on agar in a multiwell plate (24-well format) and sprayed with the formulated test compound diluted in water. The leaf disks are inoculated with a spore suspension of the fungus 2 days after application. The inoculated test leaf disks are incubated at 20° C. and 75% rh under a light regime of 12 h light/12 h darkness in a climate cabinet and the activity of a compound is assessed as percent disease control compared to untreated when an appropriate level of disease damage appears in untreated check leaf disks (5-7 days after application).

[3] = test system: Alternaria solani; experiment: Alternaria solani / tomato / leaf disc (early blight); type: in vivo; conditions: 200 ppm; tomato leaf disks cv. Baby, inoculated 2 days after application, assessed 5-7 days after application, compared to untreated
Procedure: Alternaria solani/Tomato/Leaf Disc (Early Blight) Tomato leaf disks cv. Baby are placed on agar in multiwell plates (24-well format) and sprayed with the formulated test compound diluted in water. The leaf disks are inoculated with a spore suspension of the fungus 2 days after application. The inoculated leaf disks are incubated at 23° C./21° C.

[4] = test system: Mycosphaerella Graminicola (Septoria tritici); experiment: Mycosphaerella graminicola (Septoria tritici) / liquid culture (Septoria blotch); type: cell-based; conditions: Zymoseptoria tritici, PDB potato dextrose broth, 24° C., 4 to 5 days after application, compared to untreated checks, read-out: disease control (inhibition of growth, photometric)
Procedure: (§1) Mycosphaerella Graminicola (Septoria tritici)/Liquid Culture (Septoria Blotch) Conidia of the fungus from cryogenic storage are directly mixed into nutrient broth (PDB potato dextrose broth). After placing a (DMSO) solution of test compound into a microtiter plate (96-well format), the nutrient broth containing the fungal spores is added. The test plates are incubated at 24° C. and the inhibition of growth is determined photometrically 4 to 5 days after application.

[5] = test system: Mycosphaerella arachidis (Cercospora arachidicola); experiment: Mycosphaerella arachidis (Cercospora arachidicola) / liquid culture (early leaf spot); type: cell-based; conditions: PDB potato dextrose broth, 24° C., 4-5 days after application, compared to untreated checks, read-out: disease control (inhibition of growth, photometric)
Procedure: as §1, with “arachidis (Cercospora arachidicola)/Liquid” for “Graminicola (Septoria tritici)/Liquid”, “(Early Leaf Spot)” for “(Septoria Blotch)”, “4-5” for “4 to 5”

[6] = test system: Magnaporthe grisea (Pyricularia oryzae); experiment: whole plant or invertebrate; type: in vivo; conditions: foliar, read-out: disease control
[7] = test system: Monographella nivalis (Microdochium nivale); experiment: Monographella nivalis (Microdochium nivale) / liquid culture (foot rot cereals); type: cell-based; conditions: PDB potato dextrose broth, 24° C., 4-5 days after application, compared to untreated checks, read-out: disease control (inhibition of growth, photometric)
Procedure: as §1, with “Monographella nivalis (Microdochium nivale)/Liquid” for “Mycosphaerella Graminicola (Septoria tritici)/Liquid”, “(Foot Rot Cereals)” for “(Septoria Blotch)”, “4-5” for “4 to 5”

[8] = test system: Glomerella Lagenarium (Colletotrichum lagenarium); experiment: Glomerella lagenarium (Colletotrichum lagenarium) / liquid culture (anthracnose); type: cell-based; conditions: Colletotrichum orbiculare, PDB potato dextrose broth, 24° C., 3 to 4 days after application, compared to untreated checks, read-out: disease control (inhibition of growth, photometric)
Procedure: as §1, with “Glomerella Lagenarium (Colletotrichum lagenarium)/Liquid” for “Mycosphaerella Graminicola (Septoria tritici)/Liquid”, “(Anthracnose)” for “(Septoria Blotch)”, “measured” for “determined”, “photometrically 3 to” for “photometrically”, “4” for “4 to 5”

[9] = test system: Botryotinia fuckeliana (Botrytis cinerea); experiment: Botryotinia fuckeliana (Botrytis cinerea) / liquid culture (gray mould); type: cell-based; conditions: Vogels broth, 24° C., 3-4 days after application, compared to untreated checks, read-out: disease control (inhibition of growth, photometric)
Procedure: as §1, with “Botryotinia fuckeliana (Botrytis cinerea)/Liquid” for “Mycosphaerella Graminicola (Septoria tritici)/Liquid”, “(Gray Mould)” for “(Septoria Blotch)”, “(Vogels” for “(PDB potato dextrose”, “3-4” for “4 to 5”

[10] = test system: Blumeria graminis f. Sp. Tritici (Erysiphe Graminis f. Sp. Tritici); experiment: Blumeria graminis f. sp. tritici / wheat / leaf disc preventative (powdery mildew on wheat); type: in vivo; conditions: 200 ppm; wheat leaf segments cv. Kanzler, inoculated 1 day after application, assessed 6-8 days after application, compared to untreated
Procedure: Blumeria graminis f. Sp. Tritici (Erysiphe Graminis f. Sp. Tritici)/Wheat/Leaf Disc Preventative (Powdery Mildew on Wheat)
Wheat leaf segments cv. Kanzler are placed on agar in a multiwell plate (24-well format) and sprayed with the test compound formulated with DMSO and Tween20 and diluted in water. The leaf disks are inoculated by shaking powdery mildew infected plants above the test plates 1 day after application. The inoculated leaf disks are incubated at 20° C. and 60% rh under a light regime of 24 h darkness followed by 12 h light/12 h darkness in a climate chamber and the activity of a compound is assessed as percent disease control compared to untreated when an appropriate level of disease damage appears on untreated check leaf segments (6-8 days after application).

| SMILES | pest or weed control at 200 ppm [1] | pest or weed control at 200 ppm [2] | control of Alternaria solani [3] | inhibition at 200 ppm [4] | inhibition at 200 ppm [5] | pest or weed control at 200 ppm [6] | inhibition at 200 ppm [7] | inhibition at 200 ppm [8] | inhibition at 200 ppm [9] | disease control [10] |
| --- | --- | --- | --- | --- | --- | --- | --- | --- | --- | --- |
| COc1ccnc(C(=O)N[C@@H](C)C(=O)ON(C)C(C)(c2ccccc2)c2ccc(Cl)cc2)c1O (stereo partly drawn) [I.o.02, [[1-(4-chlorophenyl)-1-phenyl-ethyl]-methyl-amino] (2S)-2-[(3-hydroxy-4-methoxy-pyridine-2-carbonyl)amino]propanoate] | ≥ 80% | ≥ 80% | at least 80% | ≥ 80% | ≥ 80% | ≥ 80% |  |  |  |  |
| COc1ccnc(C(=O)N[C@@H](C)C(=O)ON(C)C(C)(c2ccc(Cl)cc2)c2ccc(Cl)cc2)c1OC(C)=O [I.u.14, [1,1-bis(4-chlorophenyl)ethyl-methyl-amino] (2S)-2-[(3-acetoxy-4-methoxy-pyridine-2-carbonyl)amino]propanoate] | ≥ 80% | ≥ 80% |  | ≥ 80% | ≥ 80% | ≥ 80% | ≥ 80% | ≥ 80% | ≥ 80% |  |
| COc1ccnc(C(=O)N[C@@H](C)C(=O)ON(C)C(c2ccccc2)c2ccccc2)c1O [I.m.01, [benzhydryl(methyl)amino] (2S)-2-[(3-hydroxy-4-methoxy-pyridine-2-carbonyl)amino]propanoate] | ≥ 80% | ≥ 80% |  | ≥ 80% | ≥ 80% | ≥ 80% | ≥ 80% | ≥ 80% | ≥ 80% |  |
| COc1ccnc(C(=O)N[C@@H](C)C(=O)ON(C)C(c2ccccc2)c2ccccc2)c1OC(C)=O [I.m.13, [benzhydryl(methyl)amino] (2S)-2-[(3-acetoxy-4-methoxy-pyridine-2-carbonyl)amino]propanoate] | ≥ 80% | ≥ 80% |  | ≥ 80% | ≥ 80% | ≥ 80% |  |  |  | at least 80% |
